These results are taken from patent US10160726B2, “Quinolone derivatives as antibacterials” (priority 2014, dated 2018).

Holding throughout (type): cell-based
For assay [1], the system named is E. coli ATCC 25922 (NB27001). The assay is described as follows: MIC, broth microdilution (CLSI). The note with it: Escherichia coli, ATCC25922; E. coli ATCC 25922; 35° C., 20 hours; read-out: Antibacterial activity (MIC) NB27001.
For assay [2], the system named is E. coli NB27177 (efflux deficient CGSC 11430, ΔtolC732::kan). The assay is described as follows: microbe, parasite or virus in culture. Conditions: Escherichia coli, 20 h, read-out: Antibacterial activity (MIC) NB27177.
The test system of assay [3] is P. aeruginosa NB52019 (wild-type PAO1). The assay is described as follows: MIC, broth microdilution (CLSI). The note with it: Pseudomonas aeruginosa, read-out: Antibacterial activity (MIC) NB52019. (In broth dilution the organism is exposed to a series of concentrations in liquid medium.)
For assay [4], the system named is P. aeruginosa NB52023 (efflux deficient K1542, ΔmexX ΔmexB). Kind of assay: microbe, parasite or virus in culture. Conditions: Pseudomonas aeruginosa, 20 h, read-out: Antibacterial activity (MIC) NB52023.
For assay [5], the system named is P. aeruginosa NB52023-CDK0006 (gyrA T83I, parC S87L). The assay is described as follows: microbe, parasite or virus in culture. The note with it: Pseudomonas aeruginosa, 20 h, read-out: Antibacterial activity (MIC) NB52023-CDK0006.
Assay [6] relates to S. aureus ATCC 29213 (NB01001). The assay is described as follows: MIC, broth microdilution (CLSI). The note with it: Staphylococcus aureus, ATCC29213; S. aureus ATCC 29213; 35° C., 20 hours; read-out: Antibacterial activity (MIC) NB01001.
Assay [7] concerns S. aureus NB01006-AVR005 (gyrA S84L, grlA S80F, grlB E471K). The assay is described as follows: microbe, parasite or virus in culture. The note with it: Staphylococcus aureus, 20 h, read-out: Antibacterial activity (MIC) NB01006-AVR005.
Setting [8] is: P. aeruginosa wild-type PAO1, 35° C., 20 hours.

≈ marks a conversion by molar mass, not a printed value. Counter-ions that a name gives are not always drawn. Like-named read-outs stand apart in the source and are kept apart here.

Turning to `Cc1c(N2CCNCC2)c(F)cc2c(CN)cc(=O)n(C3CC3)c12` [Example 81.09, 4-(aminomethyl)-1-cyclopropyl-6-fluoro-8-methyl-7-(piperazin-1-yl)quinolin-2(1H)-one], the MIC in assay [1] came to 2 µg/mL (≈ 6.05 µM); in assay [2], 0.5 µg/mL (≈ 1.51 µM); in assay [3] (setting [8]), 4 µg/mL (≈ 12.1 µM); in assay [4], 0.5 µg/mL (≈ 1.51 µM); in assay [5] it was 2 µg/mL (≈ 6.05 µM); in assay [6] it was 16 µg/mL (≈ 48.4 µM). In addition, the MIC in assay [7] turned out to be 16 µg/mL (≈ 48.4 µM).
As to `Cc1c(N2CC[C@@H]([C@H](C)N)C2)c(F)cc2c(-c3ccccc3)cc(=O)n(C3CC3)c12` [Example 19, 7-((R)-3-((S)-1-aminoethyl)pyrrolidin-1-yl)-1-cyclopropyl-6-fluoro-8-methyl-4-phenylquinolin-2(1H)-one], the MIC in assay [1] is 32 µg/mL (≈ 78.9 µM); in assay [2], 0.5 µg/mL (≈ 1.23 µM); in assay [3] (setting [8]) it was over 32 µg/mL; in assay [4] it was over 32 µg/mL; in assay [5], over 32 µg/mL; in assay [6], 0.5 µg/mL (≈ 1.23 µM). The MIC in assay [7] came to 0.5 µg/mL (≈ 1.23 µM).
In the case of `Cc1c(N2CCC(CN)C2)c(F)c(C#N)c2ccc(=O)n(C3CC3)c12.O=C(O)C(F)(F)F` (stereo not shown) [Example 99, 7-(3-(aminomethyl)pyrrolidin-1-yl)-1-cyclopropyl-6-fluoro-8-methyl-2-oxo-1,2-dihydroquinoline-5-carbonitrile TFA salt], the MIC in assay [1] is 4 µg/mL; in assay [2], 0.125 µg/mL; in assay [3] (setting [8]), over 32 µg/mL; in assay [4] it was 2 µg/mL; in assay [5], 4 µg/mL; in assay [6], 0.125 µg/mL. In addition, the MIC in assay [7] amounted to 0.06 µg/mL.
In the case of `CCOC(=O)c1cc(=O)n(C2CC2)c2c(C)c(N3CC[C@@H]([C@H](C)N)C3)c(F)cc12` [Example 35, ethyl 7-((R)-3-((S)-1-aminoethyl)pyrrolidin-1-yl)-1-cyclopropyl-6-fluoro-8-methyl-2-oxo-1,2-dihydroquinoline-4-carboxylate], the MIC in assay [1] was 4 µg/mL (≈ 9.96 µM); in assay [2], under 0.03 µg/mL; in assay [3] (PAO1, 20 h), 8 µg/mL (≈ 19.9 µM); in assay [4], 8 µg/mL (≈ 19.9 µM); in assay [5] it was 8 µg/mL (≈ 19.9 µM); in assay [6], 0.06 µg/mL (≈ 0.149 µM). Also, the MIC in assay [7] came to 0.06 µg/mL (≈ 0.149 µM).
As to `N#Cc1c(N2CC[C@H](N)C2)c(F)cc2c(CN)cc(=O)n(C3CC3)c12` [Example 114, (S)-4-(aminomethyl)-7-(3-aminopyrrolidin-1-yl)-1-cyclopropyl-6-fluoro-2-oxo-1,2-dihydroquinoline-8-carbonitrile], the MIC came to 2 µg/mL (≈ 5.86 µM) in assay [1]; 0.5 µg/mL (≈ 1.46 µM) in assay [2]; 16 µg/mL (≈ 46.9 µM) in assay [3] (PAO1, 20 h); 2 µg/mL (≈ 5.86 µM) in assay [4]; 4 µg/mL (≈ 11.7 µM) in assay [5]; 16 µg/mL (≈ 46.9 µM) in assay [6]. Further, the MIC in assay [7] came out at 32 µg/mL (≈ 93.7 µM).
On to `CC(=O)NCCOc1cc(=O)n(C2CC2)c2c(C)c(N3CC[C@@H]([C@H](C)N)C3)c(F)cc12` [Example 54, N-(2-((7-((R)-3-((S)-1-aminoethyl)pyrrolidin-1-yl)-1-cyclopropyl-6-fluoro-8-methyl-2-oxo-1,2-dihydroquinolin-4-yl)oxy)ethyl)acetamide], for which the MIC was 32 µg/mL (≈ 74.3 µM) in assay [1]; 4 µg/mL (≈ 9.29 µM) in assay [2]; 32 µg/mL (≈ 74.3 µM) in assay [3] (PAO1, 20 h); over 32 µg/mL in assay [4]; over 32 µg/mL in assay [5]; 8 µg/mL (≈ 18.6 µM) in assay [6]. Also, the MIC in assay [7] was found to be 4 µg/mL (≈ 9.29 µM).
As to `Cc1c(N2CC[C@@H]([C@H](C)N)C2)c(F)cc2c(OCC(N)=O)cc(=O)n(C3CC3)c12` [Example 56, 2-((7-((R)-3-((S)-1-aminoethyl)pyrrolidin-1-yl)-1-cyclopropyl-6-fluoro-8-methyl-2-oxo-1,2-dihydroquinolin-4-yl)oxy)acetamide], the MIC in assay [1] is 32 µg/mL (≈ 79.5 µM); in assay [2], 2 µg/mL (≈ 4.97 µM); in assay [3] (PAO1, 20 h) it was over 32 µg/mL; in assay [4] it was 16 µg/mL (≈ 39.8 µM); in assay [5], over 32 µg/mL; in assay [6], 4 µg/mL (≈ 9.94 µM). In addition, in assay [7], the MIC was determined as 4 µg/mL (≈ 9.94 µM).
Take `Cc1c(N2CC[C@H](O)C2)c(F)cc2c(OCCN(C)C)cc(=O)n(C3CC3)c12` [Example 55, (S)-1-cyclopropyl-4-(2-(dimethylamino)ethoxy)-6-fluoro-7-(3-hydroxypyrrolidin-1-yl)-8-methylquinolin-2(1H)-one]: the MIC was 8 µg/mL (≈ 20.5 µM) in assay [1]; 0.125 µg/mL (≈ 0.321 µM) in assay [2]; over 32 µg/mL in assay [3] (PAO1, 20 h); 32 µg/mL (≈ 82.2 µM) in assay [4]; 32 µg/mL (≈ 82.2 µM) in assay [5]; 0.5 µg/mL (≈ 1.28 µM) in assay [6]. The MIC in assay [7] is 0.5 µg/mL (≈ 1.28 µM).
Take `Cc1c(-c2ccc(N)nc2)ccc2ccc(=O)n(C3CC3)c12` [Example 75, 7-(6-aminopyridin-3-yl)-1-cyclopropyl-8-methylquinolin-2(1H)-one]: the MIC in assay [1] is 32 µg/mL (≈ 110 µM); in assay [2], 0.5 µg/mL (≈ 1.72 µM); in assay [3] (PAO1, 20 h), over 32 µg/mL; in assay [4] it was 32 µg/mL (≈ 110 µM); in assay [5], over 32 µg/mL; in assay [6] it was 8 µg/mL (≈ 27.5 µM). For the same compound, the MIC in assay [7] came to 8 µg/mL (≈ 27.5 µM).
For `Cc1c(N2CCC(F)(CN)C2)c(F)c(F)c2c(CN)cc(=O)n(C3CCC3)c12` (stereo not shown) [Example 115, 4-(aminomethyl)-7-(3-(aminomethyl)-3-fluoropyrrolidin-1-yl)-1-cyclobutyl-5,6-difluoro-8-methylquinolin-2(1H)-one TFA salt], the MIC in assay [1] is 1 µg/mL; in assay [2], 0.5 µg/mL; in assay [3] (PAO1, 20 h), over 32 µg/mL; in assay [4] it was 8 µg/mL; in assay [5], 16 µg/mL; in assay [6] it was 2 µg/mL. Also, the MIC in assay [7] turned out to be 4 µg/mL.
On to `Cc1c(N2CC[C@@H]([C@H](C)N)C2)c(F)cc2c(NS(C)(=O)=O)cc(=O)n(C3CC3)c12` [Example 37, N-(7-((R)-3-((S)-1-aminoethyl)pyrrolidin-1-yl)-1-cyclopropyl-6-fluoro-8-methyl-2-oxo-1,2-dihydroquinolin-4-yl)methanesulfonamide], for which the MIC is 32 µg/mL (≈ 75.7 µM) in assay [1]; 4 µg/mL (≈ 9.47 µM) in assay [2]; 32 µg/mL (≈ 75.7 µM) in assay [3] (PAO1, 20 h); over 32 µg/mL in assay [4]; over 32 µg/mL in assay [5]; 8 µg/mL (≈ 18.9 µM) in assay [6]. The MIC in assay [7] amounted to 16 µg/mL (≈ 37.9 µM).
Turning to `Cc1c(N2CC[C@H](O)C2)c(F)cc2c(CN)cc(=O)n(C3CC3)c12` [Example 81.32, (S)-4-(aminomethyl)-1-cyclopropyl-6-fluoro-7-(3-hydroxypyrrolidin-1-yl)-8-methylquinolin-2(1H)-one], the MIC in assay [1] is 0.5 µg/mL (≈ 1.51 µM); in assay [2], under 0.03 µg/mL; in assay [3] (PAO1, 20 h) it was 4 µg/mL (≈ 12.1 µM); in assay [4], 0.25 µg/mL (≈ 0.754 µM); in assay [5], 1 µg/mL (≈ 3.02 µM); in assay [6] it was 0.5 µg/mL (≈ 1.51 µM). In addition, the MIC in assay [7] worked out at 1 µg/mL (≈ 3.02 µM).
Take `Cc1c(N2CCC(CN)C2)c(F)cc2c(CCN)cc(=O)n(C3CC3)c12.O=C(O)C(F)(F)F` (stereo not shown) [Example 91, 4-(2-aminoethyl)-7-(3-(aminomethyl)pyrrolidin-1-yl)-1-cyclopropyl-6-fluoro-8-methylquinolin-2(1H)-one TFA salt]: the MIC in assay [1] is 8 µg/mL; in assay [2] it was 1 µg/mL; in assay [3] (setting [8]), 16 µg/mL; in assay [4], 8 µg/mL; in assay [5], 16 µg/mL; in assay [6] it was 1 µg/mL. The MIC in assay [7] amounted to 1 µg/mL.
`COc1cc2cc(F)c(-c3ccc(N)nc3)c(C)c2n(C2CC2)c1=O` [Example 7, 7-(6-aminopyridin-3-yl)-1-cyclopropyl-6-fluoro-3-methoxy-8-methylquinolin-2(1H)-one]: the MIC in assay [1] was 32 µg/mL (≈ 94.3 µM); in assay [2], 0.25 µg/mL (≈ 0.737 µM); in assay [3] (PAO1, 20 h), over 32 µg/mL; in assay [4], over 32 µg/mL; in assay [5], over 32 µg/mL; in assay [6] it was 2 µg/mL (≈ 5.89 µM). For the same compound, the MIC in assay [7] was 4 µg/mL (≈ 11.8 µM).
`Cc1c(N2CC[C@@H]([C@H](C)N)C2)c(F)cc2c(OCCCc3n[nH]c(=O)o3)cc(=O)n(C3CC3)c12` [Example 65, 5-(3-((7-((R)-3-((S)-1-aminoethyl)pyrrolidin-1-yl)-1-cyclopropyl-6-fluoro-8-methyl-2-oxo-1,2-dihydroquinolin-4-yl)oxy)propyl)-1,3,4-oxadiazol-2(3H)-one]: the MIC was 32 µg/mL (≈ 67.9 µM) in assay [1]; 4 µg/mL (≈ 8.48 µM) in assay [2]; over 32 µg/mL in assay [3] (PAO1, 20 h); over 32 µg/mL in assay [4]; over 32 µg/mL in assay [5]; 4 µg/mL (≈ 8.48 µM) in assay [6]. In assay [7], the MIC came out at 2 µg/mL (≈ 4.24 µM).
For the compound `Cc1c(N2CC[C@H](CN)C2)c(F)cc2c(C#N)cc(=O)n(C3CC3)c12` [Example 29, (R)-7-(3-(aminomethyl)pyrrolidin-1-yl)-1-cyclopropyl-6-fluoro-8-methyl-2-oxo-1,2-dihydroquinoline-4-carbonitrile], the MIC was determined as 1 µg/mL (≈ 2.94 µM) in assay [1]; 0.03 µg/mL (≈ 0.0881 µM) in assay [2]; 8 µg/mL (≈ 23.5 µM) in assay [3] (PAO1, 20 h); 2 µg/mL (≈ 5.88 µM) in assay [4]; 4 µg/mL (≈ 11.8 µM) in assay [5]; 0.125 µg/mL (≈ 0.367 µM) in assay [6]. In addition, in assay [7], the MIC turned out to be 0.125 µg/mL (≈ 0.367 µM).
